Data set [1] in a line: Toxicity in nude mouse xenografted with human MV4-11 cells assessed as lung damage at 10 to 40 mg/kg, ip treated every day for 14 days by H and E staining based analysis. It counts as organism-based. To be noted: in vivo, 336 h, dose 10-40 mg/kg, time 14 day.
Data set [2] relates to MV4-11. Kind of data set: Antitumor activity against human MV4-11 cells xenografted in nude mouse assessed as tumor growth inhibition at 10 mg/kg, ip treated every day for 14 days relative to control. It counts as functional. The settings on record: MV4-11, 336 h, time 14 day, read-out: TGI.
Data set [3] deals with T1, RNA demethylase ALKBH5 (Homo sapiens, UniProt Q6P6C2). Kind of data set: Binding affinity to biotinylated ALKBH5 (66 to 292 residues)(unknown origin) expressed in Escherichia coli BL21(DE3) assessed as equilibrium dissociation constant by BLI assay.
Target sequence in this assay (Q6P6C2 whole entry, the tested form may be a part): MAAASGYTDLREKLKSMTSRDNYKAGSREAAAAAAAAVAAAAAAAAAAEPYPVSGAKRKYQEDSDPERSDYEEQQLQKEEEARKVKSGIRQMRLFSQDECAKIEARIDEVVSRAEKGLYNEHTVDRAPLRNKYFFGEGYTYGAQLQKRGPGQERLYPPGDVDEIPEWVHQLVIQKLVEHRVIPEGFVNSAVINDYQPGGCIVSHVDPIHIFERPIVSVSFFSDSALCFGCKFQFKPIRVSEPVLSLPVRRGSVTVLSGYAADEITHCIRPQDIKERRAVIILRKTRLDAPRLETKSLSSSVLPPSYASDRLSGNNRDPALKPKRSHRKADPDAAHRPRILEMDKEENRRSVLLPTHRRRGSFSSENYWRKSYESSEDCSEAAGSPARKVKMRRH
A short description of data set [4]: Metabolic stability in rat liver microsomes assessed as clearance measured upto 240 mins by LC-MS/MS analysis. Format: ADME, Microsome. The settings on record: read-out: CLH.
Data set [5] concerns the target T1, RNA demethylase ALKBH5. Kind of data set: Binding affinity to ALKBH5 in human MOLM-13 cells assessed as thermal shift heating at 200 uM incubated for 30 mins followed by heating at 45 to 67 degreeC measured for 3 mins by CETSA assay. It counts as cell-based.
Target sequence in this assay (Q6P6C2 2-394 limits assumed): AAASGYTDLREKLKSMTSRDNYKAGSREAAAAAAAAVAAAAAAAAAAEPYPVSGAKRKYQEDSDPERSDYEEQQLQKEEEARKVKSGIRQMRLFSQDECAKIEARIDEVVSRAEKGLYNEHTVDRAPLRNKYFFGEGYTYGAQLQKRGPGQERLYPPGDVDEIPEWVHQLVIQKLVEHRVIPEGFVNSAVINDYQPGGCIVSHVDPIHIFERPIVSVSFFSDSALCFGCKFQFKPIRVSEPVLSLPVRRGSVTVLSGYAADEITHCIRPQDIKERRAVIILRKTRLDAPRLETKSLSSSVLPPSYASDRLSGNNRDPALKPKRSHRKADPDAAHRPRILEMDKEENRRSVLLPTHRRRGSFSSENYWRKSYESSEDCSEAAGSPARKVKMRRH

The source made the active and inactive calls. No cut-off for these calls is given here.

For `O=C(OCc1ccc(C(F)(F)F)cc1)c1ccc(-c2cc3ncc(C(=O)c4c(O)ccc([N+](=O)[O-])c4O)cn3n2)cc1`, the Activity result in data set [1] was “Non-Toxic”. Also, the inhibition in vivo at 10 mg/kg in data set [2] is 56.3%. For the same compound, the Kd in data set [3] turned out to be 6.62 µM. Besides, the microsomal CLint in data set [4] was determined as 100 µL/min/mg. Besides, in data set [5], the outcome was Active.

Values taken from ChEMBL document CHEMBL5375956, “Discovery of Pyrazolo[1,5-a]pyrimidine Derivative as a Novel and Selective ALKBH5 Inhibitor for the Treatment of AML” (J Med Chem, 2023).
